Data taken from PMC9141920, “Identification and Characterization of Dipeptidyl Peptidase-IV Inhibitory Peptides from Oat Proteins” (Foods, 2022).
Where two headings read alike, the source gives them in different places. Where a SMILES comes first, the peptide text is derived from it.

Legend:
[1] = biological target: T1, human DPP-IV (Homo sapiens, UniProt P27487); experiment: DPP-IV inhibitory activity assay with Gly-Pro-AMC as the substrate; format: biochemical; conditions: for IC50: peptides, Gly-Pro-AMC substrate
T1 construct: purchased Sigma-Aldrich
T1 sequence (P27487 whole entry): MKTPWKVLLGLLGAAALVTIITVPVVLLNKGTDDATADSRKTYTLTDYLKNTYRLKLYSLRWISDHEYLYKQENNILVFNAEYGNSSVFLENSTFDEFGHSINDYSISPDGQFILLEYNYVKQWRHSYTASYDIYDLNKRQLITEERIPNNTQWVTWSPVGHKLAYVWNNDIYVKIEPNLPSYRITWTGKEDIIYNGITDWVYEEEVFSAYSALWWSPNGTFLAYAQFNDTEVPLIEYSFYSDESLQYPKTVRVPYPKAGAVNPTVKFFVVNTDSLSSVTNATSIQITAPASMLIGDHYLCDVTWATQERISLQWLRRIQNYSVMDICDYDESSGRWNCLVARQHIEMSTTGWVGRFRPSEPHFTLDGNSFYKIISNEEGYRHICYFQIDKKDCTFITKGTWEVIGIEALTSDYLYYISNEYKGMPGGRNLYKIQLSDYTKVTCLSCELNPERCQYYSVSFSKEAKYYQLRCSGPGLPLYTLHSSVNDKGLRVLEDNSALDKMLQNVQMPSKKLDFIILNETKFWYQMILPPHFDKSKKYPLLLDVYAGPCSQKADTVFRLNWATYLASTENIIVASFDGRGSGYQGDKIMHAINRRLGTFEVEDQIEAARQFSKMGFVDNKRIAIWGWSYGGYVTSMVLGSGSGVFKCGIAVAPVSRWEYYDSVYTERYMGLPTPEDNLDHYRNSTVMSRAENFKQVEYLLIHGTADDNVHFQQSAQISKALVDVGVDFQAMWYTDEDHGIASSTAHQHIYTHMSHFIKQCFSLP
Description: The DPP-IV inhibitory activity assay of the sample was performed using Gly-Pro-AMC as the substrate, as previously described. Briefly, 50 µL Gly-Pro-AMC (0.2 mM) was added to a 40 µL sample (dissolved in 100 mM HEPES buffer) and incubated for 10 min at 37 °C. The reaction was initiated by adding 10 µL DPP-IV enzyme solution (10 U/L). After being incubated for 60 min at 37 °C, the reaction was terminated by adding 100 µL sodium acetate buffer (1 M, pH 4.0). The fluorescence intensity of the mixture was measured with an excitation wavelength of 350 nm and an emission wavelength of 440 nm. The control group used the HEPES buffer instead of the sample. The blank group used the HEPES buffer instead of the sample and DPP-IV enzyme solution. The DPP-IV inhibitory activity of the sample was calculated as follows:(2) DPP-IV inhibitory activity (%)=(Ac− Ab) − (As−Ab)/(Ac−Ab)×100% where As, Ac, and Ab are the intensity of the fluorescence of the sample, control, and blank groups, respectively. The half-maximal inhibitory concentration (IC50) of the sample was calculated according to the DPP-IV inhibition activity against the concentrations of the sample. In addition, the type of inhibition of the sample was obtained from the Lineweaver–Burk equation and double reciprocal plots.

[2] = test system: DPP-IV; conditions: cited from earlier work; for Inhibition mode on DPP-IV: similar results reported
[3] = test system: DPP-IV; design: method as in PMID 6427168; conditions: Gly-Pro-pNA as the substrate; read-out: DPP-IV inhibition IC50; cited from earlier work
[4] = Ruditapes Philippinarum protein-derived peptides
[5] = camel milk protein-derived peptides
[6] = Chlorella Vulgaris protein-derived peptides
[7] = wheat-derived peptides, read-out: DPP-IV inhibition IC50

Row | Compound | inhibition at 25 µM [1] [%] | inhibition at 50 µM [1] [%] | inhibition at 100 µM [1] [%] | inhibition at 200 µM [1] [%] | inhibition at 400 µM [1] [%] | IC50 [1] [µM] | further results
1 | CC(C)[C@H](NC(=O)[C@H](C)NC(=O)[C@H](C)N)C(=O)N1CCC[C@H]1C(=O)N[C@@H](Cc1ccccc1)C(=O)O [AAVPF] (H-AAVPF-OH) | 5.42 ± 3.61 | 16.7 ± 3.38 | 28.9 ± 2.62 | 39.9 ± 2.79 | 59.8 ± 2.84 | 282 ± 27.2 | –
2 | CC[C@H](C)[C@H](N)C(=O)N1CCC[C@H]1C(=O)N[C@@H](CCC(N)=O)C(=O)N[C@@H](Cc1c[nH]cn1)C(=O)N[C@@H](Cc1ccc(O)cc1)C(=O)O [IPQHY] (H-IPQHY-OH) | 49.4 ± 1.19 | 66.9 ± 1.46 | 82.67 ± 0.74 | 91 ± 1.2 | 95.84 ± 0.52 | 25.7 ± 1.06 | –
3 | CC(C)C[C@H](N)C(=O)N1CCC[C@H]1C(=O)N[C@@H](CCC(N)=O)C(=O)N[C@@H](Cc1c[nH]cn1)C(=O)N[C@@H](Cc1ccc(O)cc1)C(=O)O [LPQHY] (H-LPQHY-OH) | 21.3 ± 4.86 | 37.4 ± 4.24 | 62.6 ± 1.21 | 80.4 ± 4.84 | 89.87 ± 0.41 | – | –
4 | CC(C)C[C@H](N)C(=O)N1CCC[C@H]1C(=O)N[C@@H](CCC(N)=O)C(=O)N[C@@H](Cc1ccc(O)cc1)C(=O)N[C@@H](CCC(N)=O)C(=O)N[C@@H](C)C(=O)O [LPQYQA] (H-LPQYQA-OH) | – | – | – | 5.59 ± 3.1 | 29.8 ± 2.5 | – | –
5 | CSCC[C@H](N)C(=O)N[C@@H](C)C(=O)NCC(=O)N[C@@H](CCC(N)=O)C(=O)N[C@H](C(=O)N[C@@H](Cc1ccccc1)C(=O)O)C(C)C [MAGQVF] (H-MAGQVF-OH) | 10.4 ± 4.35 | 13 ± 2.11 | 26.7 ± 3.49 | 49.4 ± 1.9 | 67.5 ± 2.97 | 223 ± 6.16 | –
6 | O=C(N[C@@H](CS)C(=O)N1CCC[C@H]1C(=O)O)[C@H](Cc1c[nH]cn1)NC(=O)[C@@H]1CCCN1C(=O)[C@@H]1CCCN1 [PPHCP] (H-PPHCP-OH; N-terminus and C-terminus assumed) | 4.42 ± 3.95 | 29.9 ± 1.84 | 58.9 ± 1.1 | 81.35 ± 0.48 | 89.29 ± 0.45 | – | –
7 | CC(C)[C@H](N)C(=O)N[C@@H](C)C(=O)N[C@@H](CCC(=O)O)C(=O)N[C@H](C(=O)N1CCC[C@H]1C(=O)N[C@@H](Cc1ccccc1)C(=O)O)C(C)C [VAEVPF] (H-VAEVPF-OH) | 33 ± 12.3 | 43.4 ± 2.27 | 58.2 ± 3.86 | 74.2 ± 2.32 | 86.2 ± 0.96 | 65.3 ± 13.1 | –
8 | CC(C)[C@H](N)C(=O)N[C@@H](C)C(=O)N[C@H](C(=O)N[C@H](C(=O)N1CCC[C@H]1C(=O)N[C@@H](Cc1ccccc1)C(=O)O)C(C)C)C(C)C [VAVVPF] (H-VAVVPF-OH) | 42.9 ± 2.31 | 61.5 ± 5.19 | 66 ± 4.07 | 78.9 ± 1.23 | 87.99 ± 0.39 | 33.9 ± 4.83 | –
9 | CC(C)C[C@H](NC(=O)[C@@H]1CCCN1C(=O)[C@@H](N)C(C)C)C(=O)NCC(=O)NCC(=O)N[C@@H](Cc1ccccc1)C(=O)O [VPLGGF] (H-VPLGGF-OH) | 34 ± 0.76 | 55.9 ± 1.86 | 74.4 ± 0.88 | 86.7 ± 1.1 | 92.67 ± 0.36 | 40.2 ± 0.95 | –
10 | CC(C)[C@H](N)C(=O)N1CCC[C@H]1C(=O)N[C@@H](CCC(N)=O)C(=O)N[C@@H](Cc1c[nH]cn1)C(=O)N[C@@H](Cc1ccc(O)cc1)C(=O)O [VPQHY] (H-VPQHY-OH) | 40.5 ± 4.59 | 69.3 ± 4.66 | 78.8 ± 2.17 | 87.25 ± 0.25 | 94.3 ± 0.28 | 30.8 ± 1.93 | –
11 | FAGDDAPR [Ruditapes Philippinarum protein-derived peptide] | – | – | – | – | – | – | Inhibition mode on DPP-IV [2, 4]: mixed-type inhibitors
12 | FAGDDAPRA [Ruditapes Philippinarum protein-derived peptide] | – | – | – | – | – | – | Inhibition mode on DPP-IV [2, 4]: mixed-type inhibitors
13 | FLMESH | – | – | – | – | – | – | Inhibition mode on DPP-IV [2, 4]: mixed-type inhibitors
14 | ILDKVGINY [camel milk protein-derived peptide] | – | – | – | – | – | – | Inhibition mode on DPP-IV [2, 5]: mixed-type inhibitors
15 | IPR | – | – | – | – | – | – | Inhibition mode on DPP-IV [2, 6]: mixed-type inhibitors
16 | LQAFEPLR | – | – | – | – | – | – | IC50 ([2]; peptide from tryptic hydrolysate of oat globulin, read-out: DPP-IV inhibitory activity IC50): 104 µM
17 | MPF | – | – | – | – | – | – | IC50 [2, 7]: ~500 µM
18 | SPVVPF | – | – | – | – | – | – | Inhibition mode on DPP-IV [2, 5]: mixed-type inhibitors
19 | VAVPV | – | – | – | – | – | – | IC50 [2, 7]: ~500 µM
20 | VPL | – | – | – | – | – | – | IC50 [3]: 16.8 µM
21 | VPW | – | – | – | – | – | – | Inhibition mode on DPP-IV [2, 6]: mixed-type inhibitors
